The results in this text go back to ChEMBL document CHEMBL3507680, “University of Dundee, Gates Library screen for HepG2 cell viability”.

This data set can be described thus: Human HepG2 cell viability assay in 384 well format. Type of data set: toxicity, cell-based. Also noted: dose 125 nL, time 70.5 hour; concentration not given beside the values. Conditions: HepG2 cells, read-out: Inhibition.
Regarding `CN(Cc1cccc(C(=O)Nc2ccnn2C)c1)CC1(C)COC1`, the cytotoxicity at 70.5 h was 0.785%.
For `CN(C)C(CNC(=O)c1nc(N2CCOCC2)ncc1Cl)c1ccco1` (stereo unspecified) the value was -19.3%.
For `CN(C)C[C@]12COC[C@H]1CN(Cc1ccccn1)C2`, the cytotoxicity at 70.5 h was -8.89%.
As for `CN1CCCC1CCNC(=O)Nc1ccccc1` (stereo unspecified), the cytotoxicity at 70.5 h was -5%.
As to `CC(CC#N)N1CCN(C(=O)OC(C)(C)C)CC1` (stereo unspecified), the cytotoxicity at 70.5 h came to 13.3%.
For `CCOCc1nccc(-c2ccc(OCC)c(C(=O)O)c2)n1` the value was 2.25%; for `CCN(CC)C1CCN(C(=O)NCc2cccc(NC(C)=O)c2)C1` (stereo unspecified), -6.18%.
Take `O=C(NCCCN1CCC(OC2CCCCC2)CC1)C1CCCC1`: the cytotoxicity at 70.5 h is -0.377%.
For `c1csc(CN2CCCn3nnc(COCC4CC4)c3C2)n1` the value was -11%; for `CCCn1cc(Cl)c(C(=O)N2C[C@@H](O)[C@H](NC(C)=O)C2)n1`, -8.89%.
For `Cn1cccc1-c1cc(C(=O)NCCc2nnc(N)s2)[nH]n1` the value was 4.96%; for `CCc1ccc(CC(=O)N2CCN(c3nccn3C)CC2)cc1`, 8.19%.
For `CC1CCCN(C(=O)c2nnn(-c3ccc(C(F)(F)F)cc3)n2)C1` (stereo unspecified) the value was 1.4%; for `CC(=O)c1ccc(OCC(=O)NS(=O)(=O)c2ccc(Cl)s2)cc1`, -10.1%.
With `CCCNC(=O)c1ccc(S(=O)(=O)NCC2(COC)CCCC2)cc1`, the cytotoxicity at 70.5 h is -4.17%.
In the case of `NC(=O)C1CN(C(=O)Nc2ccc(SC(F)(F)F)cc2)CCO1` (stereo unspecified), the cytotoxicity at 70.5 h is -10.3%.
For `CC(C)n1nccc1NC(=O)CN1CCc2sccc2C1` the value was -15.3%.
For `COCCSc1ccc(-n2ccnc2)nn1` the value was 26.4%; for `CCCSc1nn(CCN(C)C)c2nc3sc(C)c(CC)c3c(=O)n12`, 32.5%; for `NC(=O)C1CCCN(c2ccc(CNC(=O)c3cc[nH]n3)cc2)C1` (stereo unspecified), 5.04%.
For `O=C(c1ccoc1)N1CCn2cnc(COCC3CC3)c2C1` the value was 4.58%; for `Cc1cc(OC(F)F)c(C(=O)N2CCC(N(C)C)CC2)s1`, 31.3%.
In the case of `Fc1cnc(N2CCC3(CC2)CN(Cc2cccs2)CCO3)nc1`, the cytotoxicity at 70.5 h was -6.3%.
For `COc1ccc(Cl)cc1NC(=O)N1CCc2nc(NC(C)=O)sc2C1` the value was -5.4%; for `CCN1CCC(CC(=O)NC[C@H]2CCc3ccccc3O2)CC1`, -8.77%; for `Cc1nnc(CSc2ccccn2)o1`, -13.6%.
`Cc1ncc(C(=O)OCC2CCN(c3ccccc3)C2)s1` (stereo unspecified): the cytotoxicity at 70.5 h is -126%.
For `Cc1cccc(COC2COC3(CCN(S(C)(=O)=O)CC3)C2)n1` (stereo unspecified) the value was -0.691%; for `Cn1c(Cn2ccnc2)nnc1C1CCCN(CC(C)(C)C)C1` (stereo unspecified), -8.29%.
Regarding `O=C1CN([C@@H]2CC[C@@H](NS(=O)(=O)c3ccccc3F)[C@H]2O)CCN1`, the cytotoxicity at 70.5 h was found to be 25.1%.
For `Cc1noc(C)c1CNCC1COCc2c(-c3ccoc3)nnn2C1` (stereo unspecified) the value was -9.07%; for `CN1CCN(Cc2ccccc2CNC(=O)c2cc(Cl)ccc2F)CC1`, -5.92%; for `CO[C@H]1C[C@@H](O)C12CCN(C(=O)CCCOc1ccccc1)CC2`, -8.27%.
Consider `Cc1nc(C)n(CC2CCCN(Cc3ccc(C(N)=O)cc3)C2)n1` (stereo unspecified), for which the cytotoxicity at 70.5 h was -4.6%.
For `O=C(CCCc1cn[nH]c1)N1C[C@H](CO)C[C@H](CN2CCCC2)C1` the value was -5.76%; for `Cc1cccc(NC(=O)CN2C(=O)CC(C)(C)c3ccccc32)n1`, -8.87%; for `CC(C)Cc1nc(CN2CCc3onc(-c4cccc(F)c4)c3C2)no1`, -2.69%.
For `Cc1nc2c(C)cccc2cc1C(=O)N1CCC2(CCCNC2)C1` (stereo unspecified) the value was -11.4%.
With `Cc1ccc(S(N)(=O)=O)cc1C(=O)N1CCc2c(ncnc2N(C)C)C1`, the cytotoxicity at 70.5 h came to 0.0385%.
For `Oc1cc(-c2cccs2)nc(C2CCCN(CC3=CCCOC3)C2)n1` (stereo unspecified) the value was -9.88%; for `CC(C)c1nccn1C(C)C(=O)N1CCN(c2cnccn2)CC1` (stereo unspecified), -11.1%; for `Cc1cnc(CN(C)C2CCN(CC(=O)Nc3nccs3)C2)o1` (stereo unspecified), -5.94%.
For `Cc1ccccc1C(=O)N1CCC2(CCCN2CCN(C)C)CC1` the value was -9.86%; for `CCOCC(O)CN1CCN(C(=O)c2cc(F)ccc2C)CC1` (stereo unspecified), -18.9%.
As to `N#Cc1cn(C2CC2)c(=O)n(Cc2noc(-c3ccsc3)n2)c1=O`, the cytotoxicity at 70.5 h is -14%.
With `Cc1ccc(F)c(C(=O)Nc2c(C(N)=O)n[nH]c2C)c1`, the cytotoxicity at 70.5 h was -10.1%.
As to `Cc1cnn(CC2CCCCN2c2nn3cc(C)nc3s2)c1` (stereo unspecified), the cytotoxicity at 70.5 h came to 21.1%.
Regarding `CCOCC(=O)N1CC[C@H]2O[C@@H](C)C[C@H]2C1`, the cytotoxicity at 70.5 h was -12.8%.
In the case of `O=C(CCN1CCN(c2ccc3nncn3n2)CC1)N1CCCCC1`, the cytotoxicity at 70.5 h was -5.89%.
For the molecule `CNC(=O)COc1ccc(-c2ccccc2)nc1`, the cytotoxicity at 70.5 h is -7.98%.
Turning to `CSCc1cccc(C(=O)N2CCN(CC(C)O)CC2)c1` (stereo unspecified), the cytotoxicity at 70.5 h is -14.6%.
Consider `c1ccc(CCN2CCCC2c2ccnc(Nc3ncccn3)n2)cc1` (stereo unspecified), for which the cytotoxicity at 70.5 h is -5.57%.
For `Cc1ncc(CNC(=O)CCc2c(C)noc2C)c(C2CCCN2C)n1` (stereo unspecified) the value was -3.48%.
For `CS(=O)(=O)N1CCC2(CCCN(c3ncc(F)cn3)C2)C1` (stereo unspecified) the value was -7.4%; for `NC(=O)CN1C(=O)CO[C@H]2CN(Cc3ccc(Cl)cc3)C[C@H]21`, 13%.
On to `Cc1cnn(CC2CN(Cc3nc4cccnc4[nH]3)CCO2)c1` (stereo unspecified), for which the cytotoxicity at 70.5 h worked out at 7.51%.
For `O=C(c1ccc(Cl)cc1)N1CCC(N2CCCCC2=O)CC1` the value was -7.46%; for `Cc1ccn(-c2ccc(NCc3ccccc3F)nn2)n1`, 13.7%.
For `O=C1COc2cc(S(=O)(=O)NCCC3=CCCCC3)c(Cl)cc2N1` the value was 14.7%; for `CC(=O)NCCNC(=O)NCCc1c(C)cc(C)cc1C`, 0.521%.
For `Clc1ccc(-n2cnnc2CCCN2CCOCC2)cc1`, the cytotoxicity at 70.5 h is 1.11%.
As to `Cc1ccc2c(ccn2CCC(=O)NC[C@@H]2CCCN3CCCC[C@H]23)c1`, the cytotoxicity at 70.5 h amounted to 1.22%.
Turning to `CN(Cc1cn2c(n1)CN(C(=O)CC1CC1)CC2)Cc1ccco1`, the cytotoxicity at 70.5 h is -4.98%.
For `CN(CC1CCCCO1)c1ncnc2cc(F)ccc12` (stereo unspecified), the cytotoxicity at 70.5 h is -9.25%.
Regarding `COc1ccc(-n2cc(CNC(=O)c3ccc[nH]3)nn2)cc1`, the cytotoxicity at 70.5 h was -2.18%.
`CC(C)[C@@H]1CN(C(=O)C2(c3ccccc3)CCN(C)CC2)C[C@H]1C(=O)O`: the cytotoxicity at 70.5 h was -5.2%.
In the case of `CC(=O)Cn1cc(C#N)c(=O)c2cc(Br)ccc21`, the cytotoxicity at 70.5 h is -13.6%.
For `O=C(N[C@H]1COC[C@@H]1N1CCCC1)c1c[nH]nc1C1CCCCC1` the value was -4.22%; for `Cc1nc(N(C)C/C=C/c2ccccc2)c2cnn(C)c2n1`, -5.71%.
For the molecule `O=C(c1cnccn1)N1CC[C@@H]2CO[C@@H](CN3CCCC3)[C@@H]2C1`, the cytotoxicity at 70.5 h was -5.22%.
For the molecule `COCC(=O)N1CCc2cccc(S(=O)(=O)N3CCN(C)CC3)c2C1`, the cytotoxicity at 70.5 h is -2.39%.
